Experimental data reported in patent US20240309003A1, “HETEROCYCLIC COMPOUNDS AS TRIGGERING RECEPTOR EXPRESSED ON MYELOID CELLS 2 AGONISTS AND METHODS OF USE” (Vigil Neuroscience, Inc., priority 2021, published 2024).

The compounds below were run against T1, human TREM2 (Homo sapiens, UniProt Q9NZC2) (assay: TREM2 agonist potency by cellular phosphorylation of Syk (AlphaLisa) in HEK293T-hTREM2 cells). Conditions: HEK293 cells expressing human TREM2 and DAP12, Table D.
T1 construct: expressed in transfected cells; host or cells: HEK293T
T1 sequence (Q9NZC2 19-230): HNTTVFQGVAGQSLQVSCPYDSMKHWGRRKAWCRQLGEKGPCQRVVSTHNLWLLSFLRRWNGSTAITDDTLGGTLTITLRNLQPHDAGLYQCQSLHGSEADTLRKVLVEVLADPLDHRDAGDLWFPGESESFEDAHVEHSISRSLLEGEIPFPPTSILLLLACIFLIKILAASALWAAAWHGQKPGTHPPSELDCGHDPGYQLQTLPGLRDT
T1 sequence (O43914 22-113 partner): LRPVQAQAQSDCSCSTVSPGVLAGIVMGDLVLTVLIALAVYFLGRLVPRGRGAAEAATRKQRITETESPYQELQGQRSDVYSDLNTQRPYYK
Type: cell-based
Outline: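 Agonist EC50 from a variable-slope four-parameter fit of % activation, based on AlphaLisa phospho-Syk levels in lysates. Cells: HEK293T-hTREM2 (with DAP12), treated 45 min at room temperature with compound in assay buffer.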

Row | Compound | EC50 [nM]
1 | Cc1cnc2c(C34CC(C)(C3)C4)nc([C@H]3C[C@@H](C)O[C@@H](c4cnn(C5CC5)c4)C3)nc2n1 [Example 151, 2-((2R,4S,6R)-2-(1-cyclopropyl-1H-pyrazol-4-yl)-6-methyltetrahydro-2H-pyran-4-yl)-7-methyl-4-(3-methylbicyclo[1.1.1]pentan-1-yl)pteridine] | 500 to 3000
2 | Cc1nc2cc([C@H]3CCO[C@@H](c4cnn(C5CC5)c4)C3)cc(-c3ccc(Cl)cc3F)c2nc1C [Example 228, 5-(4-chloro-2-fluorophenyl)-7-((2R,4S)-2-(1-cyclopropyl-1H-pyrazol-4-yl)tetrahydro-2H-pyran-4-yl)-2,3-dimethylquinoxaline] | 50 to 500
3 | Cc1nc2nc([C@@H]3CCO[C@H](c4cnn(C5CC5)c4)C3)nc(-c3cc(F)c(F)cc3F)c2nc1C [Example 152, 2-((2S,4R)-2-(1-cyclopropyl-1H-pyrazol-4-yl)tetrahydro-2H-pyran-4-yl)-6,7-dimethyl-4-(2,4,5-trifluorophenyl)pteridine] | 500 to 3000
4 | [2H]C([2H])([2H])c1nc2nc([C@H]3CCO[C@@H](c4cnn(C([2H])([2H])[2H])c4)C3)nc(-c3ccc(C)cc3)c2nc1C([2H])([2H])[2H] [Example 173, 6,7-bis(methyl-d3)-2-((2R,4S)-2-(1-(methyl-d3)-1H-pyrazol-4-yl)tetrahydro-2H-pyran-4-yl)-4-(p-tolyl)pteridine] | 50 to 500
5 | Cc1cnc2c(-c3ccc(Cl)cc3F)nc([C@H]3C[C@@H](c4cnn(C5CC5)c4)O[C@@H](C)C3)nc2n1 [Example 128, 4-(4-chloro-2-fluorophenyl)-2-((2S,4R,6S)-2-(1-cyclopropyl-1H-pyrazol-4-yl)-6-methyltetrahydro-2H-pyran-4-yl)-7-methylpteridine] | < 50
6 | [2H]C1([2H])C[C@H](c2nc(-c3ccc(F)cc3F)c3nc(C)c(C)nc3n2)C[C@]([2H])(c2cnn(C3CC3)c2)O1 [Example 190, 2-((2R,4S)-2-(1-cyclopropyl-1H-pyrazol-4-yl)tetrahydro-2H-pyran-4-yl-2,6,6-d3)-4-(2,4-difluorophenyl)-6,7-dimethylpteridine] | < 50
7 | Cc1nc2nc(N3CCOC(c4cc[nH]c(=O)c4)C3)nc(C34CC(C(F)(F)F)(C3)C4)c2nc1C (stereo not drawn) [Example 197, 4-(4-(6,7-dimethyl-4-(3-(trifluoromethyl)bicyclo[1.1.1]pentan-1-yl)pteridin-2-yl)morpholin-2-yl)pyridin-2(1H)-one] | < 50
8 | Cc1nc2nc([C@H]3CCO[C@@H](c4cnn(C5CC5)c4)C3)nc(C3C[C@@H](F)[C@@H](F)C3)c2nc1C (stereo partly drawn) [Example 245, 2-((2R,4S)-2-(1-cyclopropyl-1H-pyrazol-4-yl)tetrahydro-2H-pyran-4-yl)-4-((3R,4S)-3,4-difluorocyclopentyl)-6,7-dimethylpteridine] | 500 to 3000
9 | Cc1ccc2c(-c3ccc(F)cc3F)cc([C@H]3CCO[C@@H](c4cnn(C5CC5)c4)C3)nc2n1 [Example 231] | 50 to 500
10 | Cc1cc([C@H]2C[C@@H](c3nc(-c4cc(F)c(Cl)c(F)c4)c4nc(C)c(C)nc4n3)CCO2)ccn1 (racemic) [Example 84, 4-(4-chloro-3,5-difluoro-phenyl)-6,7-dimethyl-2-[(2R,4S)-2-(2-methyl-4-pyridyl)tetrahydropyran-4-yl]pteridine] | < 50
11 | Cc1cnc2c(-c3ccc(F)cc3F)nc(N3C[C@@H](C)O[C@@H](c4cnn(C5CC5)c4)C3)cc2n1 [Example 209, (2S,6R)-2-(1-cyclopropyl-1H-pyrazol-4-yl)-4-(5-(2,4-difluorophenyl)-2-methylpyrido[3,4-b]pyrazin-7-yl)-6-methylmorpholine] | 50 to 500
12 | Cc1ccc(-c2nc(N3C[C@@H](C)O[C@@H](c4cnn(C5CC5)c4)C3)nc3nc(C)c(C)nc23)s1 [Example 244, (2S,6R)-2-(1-cyclopropyl-1H-pyrazol-4-yl)-4-(6,7-dimethyl-4-(5-methylthiophen-2-yl)pteridin-2-yl)-6-methylmorpholine] | 50 to 500
13 | Cc1ccc2c(-c3ccc(F)cc3F)nc([C@H]3CCO[C@@H](c4cnn(C5CC5)c4)C3)nc2n1 [Example 215, 2-((2R,4S)-2-(1-cyclopropyl-1H-pyrazol-4-yl)tetrahydro-2H-pyran-4-yl)-4-(2,4-difluorophenyl)-7-methylpyrido[2,3-d]pyrimidine] | 50 to 500

Same assay, conditions: HEK293 cells expressing human TREM2 and DAP12, Table D-2

Row | Compound | EC50 [nM]
14 | Cc1nc2nc([C@H]3CCO[C@@H](c4cnn(C5CC5)c4)C3)nc(-c3c(F)cc(C(F)(F)F)cc3F)c2nc1C (stereo in doubt) [Example I-1391, 4-[2,6-difluoro-4-(trifluoromethyl)phenyl]-6,7-dimethyl-2-[(2R,4S)-2-(1-cyclopropylpyrazol-4-yl)tetrahydropyran-4-yl]pteridine] | < 50
15 | [2H]C([2H])([2H])c1nc2nc(N3C[C@@H](C)O[C@@H](c4cnn(C5CC5)c4)C3)nc(-c3ccc(F)cc3F)c2nc1C([2H])([2H])[2H] [Example I-1129, (2S,6R)-2-(1-cyclopropylpyrazol-4-yl)-4-[4-(2,4-difluorophenyl)-6,7-bis(trideuteriomethyl)pteridin-2-yl]-6-methyl-morpholine] | < 50
16 | Cc1nc2nc([C@H]3CCO[C@@H](c4cnn(C5CC5)c4)C3)nc(-c3ccc(Cl)cc3F)c2nc1C(F)F [Example I-1099, 4-(4-chloro-2-fluoro-phenyl)-2-[(2R,4S)-2-(1-cyclopropylpyrazol-4-yl)tetrahydropyran-4-yl]-6-(difluoromethyl)-7-methyl-pteridine] | < 50
17 | Cc1nc2nc([C@H]3CCO[C@@H](c4cnn(C5CC5)c4)C3)nc(-c3ccc(F)cc3F)c2nc1C1CCCCC1 [Example I-1744, 6-cyclohexyl-2-((2R,4S)-2-(1-cyclopropyl-1H-pyrazol-4-yl)tetrahydro-2H-pyran-4-yl)-4-(2,4-difluorophenyl)-7-methylpteridine] | 50 to 500
18 | Cc1cc(F)c(-c2nc([C@H]3CCO[C@@H](c4cnn(C5CC5)c4)C3)nc3nc(C)c(C)nc23)cc1F [Example I-1572, 2-[(2R,4S)-2-(1-cyclopropylpyrazol-4-yl)tetrahydropyran-4-yl]-4-(2,5-difluoro-4-methyl-phenyl)-6,7-dimethyl-pteridine] | < 50
19 | Cc1nc2nc(N3C[C@@H](C)O[C@@H](c4cnn(C(F)F)c4)C3)nc(-c3ccc(F)cc3F)c2nc1C [Example I-1472, (2S,6R)-2-[1-(difluoromethyl)pyrazol-4-yl]-4-[4-(2,4-difluorophenyl)-6,7-dimethyl-pteridin-2-yl]-6-methyl-morpholine] | < 50
20 | Cc1nc2nc(N3C[C@@H](C)O[C@@H](c4cnn(C5CC5)c4CO)C3)nc(-c3ccc(F)cc3F)c2nc1C [Example I-1462, [2-cyclopropyl-4-[(2S,6R)-4-[4-(2,4-difluorophenyl)-6,7-dimethyl-pteridin-2-yl]-6-methyl-morpholin-2-yl]pyrazol-3-yl]methanol] | 50 to 500
21 | Cc1nc2nc(N3C[C@@H](C)O[C@@H](c4cnn(CCO)c4)C3)nc(-c3ccc(Cl)cc3F)c2nc1C [Example I-1686, 2-(4-((2S,6R)-4-(4-(4-chloro-2-fluorophenyl)-6,7-dimethylpteridin-2-yl)-6-methylmorpholin-2-yl)-1H-pyrazol-1-yl)ethan-1-ol] | < 50
22 | Cc1nc2cc([C@H]3CCO[C@@H](c4cnn(C5CC5)c4)C3)nc(-c3ccc(F)cc3F)c2nc1C(F)F [Example I-1552, 7-((2R,4S)-2-(1-cyclopropyl-1H-pyrazol-4-yl)tetrahydro-2H-pyran-4-yl)-3-(difluoromethyl)-5-(2,4-difluorophenyl)-2-methylpyrido[3,4-b]pyrazine] | < 50
23 | Cc1cc(N2C[C@@H](c3nc(-c4ccc(F)cc4F)c4nc(C)c(C)nc4n3)CCC2=O)ccn1 [Example I-1513] | 50 to 500
24 | Cc1nc2nc(N3C[C@@H](C)O[C@@H](c4cnn(C5CC5)c4)C3)nc([C@H]3C[C@H](OC(F)(F)F)C3)c2nc1C [Example I-1729, (2S,6R)-2-(1-cyclopropylpyrazol-4-yl)-4-[6,7-dimethyl-4-[3-(trifluoromethoxy)cyclobutyl]pteridin-2-yl]-6-methyl-morpholine] | < 50
